Source: patent US12018027B2, “Macrocyclic derivatives acting as XIa factor inhibitor” (CHINA RESOURCES BIOPHARMACEUTICAL COMPANY LIMITED, priority 2019, dated 2024)

Assays:
[1] = molecular target: Human Factor XIa (Homo sapiens (Human), UniProt P03951); assay: Screening assay for inhibitory activity against enzyme hFXIa (human factor XIa); type: biochemical; settings: substrate S-2366, pH 7.4, 37° C., absorbance 405 nm
Protocol: 1. Screening Assay for Inhibitory Activity against Enzyme hFXIa (Human Factor XIa)
To Test the Inhibitory Activity of the Compounds Disclosed herein Against Human Factor XIa
100 mM Tris-HCl (Sigma, Cat. No.: T2663, Lot No.: SLBG2775)
Enzyme: Human Factor XIa (Abcam, Cat No.: ab62411), total amount of 50 μg; dissolved in assay buffer and packaged.
3) Instruments and consumables
SpectraMax 340PC multifunctional microplate reader (Molecular Devices)
384-well black transparent reaction plate (Corning, Cat. No.: 3712)
Echo liquid workstation (Labcyte)
A 384-well polypropylene compound plate (Labcyte-P-05525) was used in Echo
A 384 shallow-well polypropylene compound plate (Labcyte-LP-0200, 2.5-12 μL) was used in Echo
Mutidrop automatic dispenser (Thermo Scientific)
Mutidrop consumables (Thermo Scientific-24073290)
Test compounds were each dissolved in DMSO to prepare a 10 mM solution and stored in a nitrogen cabinet.
1) Preparation for compounds
All test compounds were prepared using Echo, subjected to gradient dilution and transferred to a 384-well reaction plate at 100 nL. The reference compound and the test samples, with an initial concentration of 200 μM, were subjected to 3-fold dilution to get 10 concentrations (the final concentration was 1 μM). To high signal wells were added DMSO, and to low signal wells were added 100 μM reference compound. Reference can be made to the sample distribution for distributions of samples and control.
1) Preparation for enzyme human factor XIa
Enzyme human factor XIa was diluted to 0.5 μg/mL with assay buffer.
3) Preparation for substrate S-2306
S-2306 was prepared at a concentration of 1 mM using the assay buffer.
4) 10 μL of 0.5 μg/mL enzyme human factor XIa was added to the reaction plate using a Mutidrop automatic dispenser and the final concentration was 5 ng/well.
5) 10 μL of 1 mM S-2306 was added to the reaction plate using a Mutidrop automatic dispenser and the final concentration was 0.5 mM.
6) Centrifugation was performed at 1000 rpm for 10 s.
7) The reaction plate was incubated in SpectraMax 340PC at 37° C. for 10 min and the absorbance was measured at 405 nm.
8) Data were analyzed using GraphPad Prism 5.0.
% inhibition rate=100%×[1—(sample reading—mean of low signal wells)/(mean of high signal wells—mean of low signal wells)]
IC50 was analyzed using […]:
Y=Bottom+(Top−Bottom)/(1+10^((LogIC50−X)*Hill Slope))
Y is % inhibition rate and X is the logarithm of the sample concentration.

[2] = system: human plasma; assay: Human plasma in vitro aPTT (activated partial thromboplastin time); type: biochemical
Protocol: 2. Testing of Human Plasma in vitro aPTT (Activated Partial Thromboplastin Time)
To test the anticoagulant effect of the compounds disclosed herein against human plasma in vitro
1) Plasma: fresh human venous blood was mixed well with 0.109 M sodium citrate at a ratio of 9:1, and then the mixture was centrifuged at 3000 rpm for 15 min. The upper plasma was collected and tested within 2-5 h.
2) Reagents: aPTT reagent (activated partial thromboplastin time kit, mindray), PT reagent (prothrombin time kit, mindray), and calcium chloride solution.
3) Instruments: coagulometer (Beijing Precil, C2000-4).
Test compounds were each dissolved in DMSO to prepare a 10 mM stock solution. The plasma was serially diluted to 400 μM, 200 μM, 100 μM, 50 μM, 25 μM, 12.5 μM, 6.25 μM, 3.125 μM, 1.563 μM, 0.781 μM, 0.390 μM and 0.195 μM with the 10 mM stock solution of each compound, and the blank control was 100% DMSO. The reagents, plasma and compounds were placed at corresponding positions in a coagulometer to detect the aPTT and PT of the compounds.
The concentrations of compounds corresponding to aPTT2× and PT2× (i.e., aPTT and PT of 2-fold blank control) were calculated by Prism curve fitting and the results are shown in Table 2 below: […]

[3] = Pharmacokinetics in rats; type: in vivo; settings: male SD rats
Protocol: 3. Pharmacokinetics in Rats
To determine the pharmacokinetic parameters of the compounds disclosed herein in rats
1) Experimental drug: compound 1-2;
2) Experimental animals: 4 male SD rats aged 7-9 weeks, randomly divided into 2 groups, 2 rats for each group;
3) Drug preparation: a proper amount of the drug was weighed out and dissolved in a mixed solvent of DMAC:solutol:water=10:10:80 to prepare two solutions of 0.2 mg/mL and 0.5 mg/mL, respectively;
Animals in group 1 were administered with the 0.2 mg/mL drug at a dose of 0.5 mg/kg by single injection via the tail vein, and animals in group 2 were administered with the 0.5 mg/mL compound at a dose of 3 mg/kg by gavage. Animal plasma samples were collected 0.0833 (only the tail vein injection group), 0.25, 0.5, 1, 2, 4, 6, 8 and 24 h after administration. The drug concentration in plasma samples was determined using LC-MS/MS method, and the kinetic parameters of the test drug are shown in Table 3: […]

Sequence of Human Factor XIa (P03951 388-625): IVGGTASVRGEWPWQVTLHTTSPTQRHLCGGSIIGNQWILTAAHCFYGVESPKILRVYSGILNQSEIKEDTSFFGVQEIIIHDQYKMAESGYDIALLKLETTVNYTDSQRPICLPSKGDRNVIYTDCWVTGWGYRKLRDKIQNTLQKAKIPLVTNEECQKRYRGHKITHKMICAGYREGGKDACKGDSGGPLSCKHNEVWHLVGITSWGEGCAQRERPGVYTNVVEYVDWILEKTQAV
Sequence of Human Factor XIa (P03951 19-387 partner): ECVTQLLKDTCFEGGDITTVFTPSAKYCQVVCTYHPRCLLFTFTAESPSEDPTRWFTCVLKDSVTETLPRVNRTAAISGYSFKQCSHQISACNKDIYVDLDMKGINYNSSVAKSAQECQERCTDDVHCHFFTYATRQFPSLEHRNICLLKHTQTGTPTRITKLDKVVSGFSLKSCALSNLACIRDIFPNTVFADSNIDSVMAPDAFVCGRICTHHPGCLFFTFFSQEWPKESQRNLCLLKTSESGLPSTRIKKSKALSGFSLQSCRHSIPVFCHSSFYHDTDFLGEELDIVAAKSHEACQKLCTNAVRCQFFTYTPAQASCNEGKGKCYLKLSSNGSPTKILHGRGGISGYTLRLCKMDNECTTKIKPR

Row | SMILES | IC50 [1] | aPTT2× (concentration giving aPTT of 2-fold blank control) [2] | further results
1 | C[C@H]1CCC[C@@H](c2ccc(-c3cc(Cl)ccc3-n3cc(Cl)nn3)oc2=O)c2cc(ccn2)-c2c(cnn2C(F)F)NC1=O (single isomer, unassigned) [Compound 1-4] | 34.1 nM |  | 
2 | C[C@@H]1CCC[C@@H](c2ccc(-c3cc(Cl)ccc3-n3cc(C4CC4)nn3)oc2=O)c2cc(ccn2)-c2c(cnn2C(F)F)NC1=O (single isomer, unassigned) [Compound 4-1] | 21.7 nM |  | 
3 | C[C@@H]1CCC[C@@H](c2ccc(-c3cc(Cl)ccc3-n3ccnn3)oc2=O)c2cc(ccn2)-c2c(cnn2C(F)F)NC1=O [Compound 2-1] | 3.39 nM | 0.65 µM | 
4 | C[C@@H]1CCC[C@H](c2ccc(-c3cc(Cl)ccc3-n3ccnn3)oc2=O)c2cc(ccn2)-c2c(cnn2C(F)F)NC1=O [Compound 2-2] | 10.7 nM |  | 

Second part, led by results:

Row | IC50 [1] | SMILES | aPTT2× (concentration giving aPTT of 2-fold blank control) [2] | further results
5 | 20.4 nM | CCOc1cn(-c2ccc(Cl)cc2-c2ccc([C@@H]3CCC[C@@H](C)C(=O)Nc4cnn(C(F)F)c4-c4ccnc3c4)c(=O)o2)nn1 (single isomer, unassigned) [Compound 6-2] |  | 
6 | 3.9 nM | C[C@@H]1CCC[C@@H](c2ccc(-c3cc(Cl)ccc3-n3cc(Cl)nn3)oc2=O)c2cc(ccn2)-c2c(cnn2C(F)F)NC1=O (single isomer, unassigned) [Compound 1-2] | 0.87 µM | Bioavailability F ([3]; gavage 3 mg/kg vs tail vein injection 0.5 mg/kg): 37.1%; Area under curve AUC ([3]; gavage, 3 mg/kg): 5.205 µM·h; Time of peak concentration T1/2 ([3]; gavage, 3 mg/kg): 3 h; Cmax ([3]; gavage, 3 mg/kg, read-out: Peak concentration Cmax): 986 nM; Area under curve AUC ([3]; tail vein injection, 0.5 mg/kg): 2.339 µM·h; Clearance Cl ([3]; tail vein injection, 0.5 mg/kg): 5.65 mL/min/kg; Half life T1/2 ([3]; tail vein injection, 0.5 mg/kg): 1.04 h; Volume of distribution Vd ([3]; tail vein injection, 0.5 mg/kg): 0.533 L/kg; C0 ([3]; tail vein injection, 0.5 mg/kg, read-out: Initial concentration C0): 1800 nM
7 | 3.81 nM | C[C@@H]1CCC[C@@H](c2ccc(-c3cc(Cl)ccc3-n3cc(C(F)F)nn3)oc2=O)c2cc(ccn2)-c2c(cnn2C(F)F)NC1=O (single isomer, unassigned) [Compound 3-1] | 1.37 µM | 
8 | 8.22 nM | C[C@@H]1CCC[C@@H](c2ccc(-c3cc(Cl)ccc3-n3cc(Cl)nn3)n(C)c2=O)c2cc(ccn2)-c2c(cnn2C(F)F)NC1=O (single isomer, unassigned) [Compound 5-1] |  | 
